# Experiments:
# FaDu cells [1] = test: Borylated dipeptide uptake in cancer cell lines (boron by ICP-OES); format: cell-based, human; conditions: 2.5 mM in HBSS, 37° C., 2 hrs; FaDu: high LAT1, PEPT1 negative
# Protocol: (§1) The indicated cancer cell line (A) or FaDu cells (B) were harvested from culture and washed twice with PBS. Cell lines were adjusted to 2 million cells/ml in Hanks Balanced Salt Solution (HBSS). BPA or dipeptide boron compounds were added to cells at the final concentration of 2.5 mM in HBSS and the treated cells were incubated at 37° C. 5% CO2 for 2 hrs with shaking. The cells were collected by centrifugation; washed with cold PBS twice and reconstituted in 1 ml of cold PBS. Then, 50 µl of cell suspension was removed, pelleted, and lysed using RIPA buffer and the protein concentration was determined using BCA assay. The remaining 950 µl was used for boron compounds uptake measurements using ICP-OES.
# (§2) To this end, 0.5 mL of concentrated nitric acid was added to each cell pellet in a 15 mL conical tube. The tubes were capped and placed in an oven set at 80° C. for 3 hours. 2 mL of water was added’ to each sample to bring the final volume up to 2.5 mL. The boron content in each sample was then measured on an Agilent 5110 ICP-OES using an Agilent SPS4 Autosampler for sample introduction.
# The data was analyzed using Agilent’s ICP Expert Software, version 7.4.2.10790. Boron was measured axially at the 249.772 nm wavelength and the internal standard Beryllium was measured axially at the 313.042 nm wavelength. Beryllium was tee-ed into the solution at 1:5 the flowrate before introduction to the spray chamber. A standard curve using 1000, 100, 10, 1 and 0 ppb of boron was used to calculate the concentration of boron in each sample. Once determined, the boron measurement for each sample was normalized to protein content and final boron uptake results were expressed as ng boron/mg protein.
# In another experiment, uptake of BPA and dipeptide His-BPA was carried out in FaDu, and ASPC-1 as described in FIG. 15. […] Accordingly, the data supports the finding that borylated dipeptides may be taken up efficiently in PEPT1 or other dipeptide transporter expressing cancers. See, FIG. 16(C).
# In this experiment, the uptake of several dipeptide and dipeptide analogs was carried out in FaDu and ASPC-1 cells. Normalized boron uptake was determined as in FIG. 15. […] However, several dipeptides are still taken up in PEPT1 negative FaDu cells, although to a lower extent, which further confirms the proposition that an uptake mechanism does exist in FaDu cells for these dipeptides that is not PEPT1. See, FIG. 19.
# FaDu cells [2] = test: Dipeptide degradation to BPA by HPLC; format: in vitro ADME, human; conditions: for relative conversion into BPA in the presence of cells: 2.5 mM in HBSS, 4 hrs at 37° C., FaDu cells, RP-HPLC/MS semi-quantitative
# Protocol: In this experiment, to investigate whether dipeptides are converted to BPA, which is then taken up through its cognate transporter, evaluation of whether dipeptides remained intact in the tissue culture media in the presence of absence of cancer cells was made using the following protocols. Briefly, FaDu cells were harvested and counted. The cell number was adjusted to 50×10^5 / mL in the HBSS tissue culture medium using 1 mL per well. The cells were incubated at 37° C. in the 5% CO2 overnight. At the end, the supernatants were aspirated, and cells were rinsed with 1 mL PBS once. Each test article was prepared at 2.5 mM concentration in HBSS medium, and 0.4 mL was added to cells. After 4 hrs. at 37° C. the supernatants were harvested and analyzed by RP HPLC using an ACQUITY BEH C18 column 2.1 × […] (Waters) equipped with a matching guard column equilibrated with 2% aqueous acetonitrile/0.1% formic acid mobile phase. The dipeptides were separated in the gradient of 90% acetonitrile/10% water/0.1% formic acid to 20% in 6 min and identified by UV225 nm. The masses were confirmed by an online QDA mass spectrometer. Breakdown of the original dipeptide was quantitated by comparing with the control - the same dipeptide incubated in the same fashion in the absence of cells. Stabilities of BPA-BPA, Ala-BPA, and BPA-Ala were compared, and the formation of BPA was measured semi-quantitatively by RP-HPLC/MS.
# AsPC-1 cells = test: Uptake inhibition by PEPT1 competitive inhibitor Gly-SAR; format: cell-based, human; conditions: 0.8 mM test compound, with and without Gly-SAR
# Protocol: (§3) In this experiment, uptake of BPA and dipeptide His-BPA (0.8 mM of each) was carried out in FaDu and ASPC-1 in the presence and absence of the indicated concentrations of PEPT1 dipeptide transporter competitive inhibitor Gly-SAR. Normalized boron uptake was determined as in FIG. 15.
# FaDu cells [3] = test: as above; format: cell-based, human; conditions: 0.8 mM test compound, with and without Gly-SAR
# Protocol: as §3
# CT26 xenografts [4] = test: BNCT study, 12 or 6 minute irradiation at 5 MW; format: in vivo, BALB/c mice; conditions: monitored to 22 days
# Protocol: Following one (1) hour of treatment time, mice were irradiated for either 12 minutes (33(A)) or 6 minutes (33(B)) at the Kyoto University Research Reactor (Kyoto, Japan) 1 set at 5 megawatts. Data are the means ± SD of 3 mice per treatment group. Tumors were measured for growth out to 22 days.
# CT26 xenografts [5] = test: BNCT tumor regression study, 6 minute irradiation; format: in vivo, BALB/c mice; conditions: 6 minutes irradiation
# Protocol: In this experiment, CT26 xenografts in BALB/c mice were dosed with 400 mg/kg of BPA or 900 mg/kg of His-BPA or BPA-BPA. Following one (1) hour treatment time, mice were irradiated for 6 minutes at the Kyoto University Research Reactor (Kyoto, Japan) 1 set at 5 megawatts. Data are the means ± SD of 3 mice per treatment group. Tumors were measured for growth out to 36 days and examined for tumor presence at 40 days. BPA and control groups were sacrificed at day 18 due to excessive tumor growth.
# [6] = cited from earlier work
# intracranial tumor = conditions: BNCT, Japan, 1968; cited from earlier work
# Solubility = format: physicochemical
# CT26 = test: Borylated dipeptide uptake in cancer cell lines (boron by ICP-OES); format: cell-based, mouse; conditions: 2.5 mM in HBSS, 37° C., 2 hrs
# Protocol: as §1
# as §2, with “2 mL of water was added’ to each sample to bring the final volume up to 2.5 mL.” left out
# (§4) The data was analyzed using Agilent’s ICP Expert Software, version 7.4.2.10790. Boron was measured axially at the 249.772 nm wavelength and the internal standard Beryllium was measured axially at the 313.042 nm wavelength. […] Once determined, the boron measurement for each sample was normalized to protein content and final boron uptake results were expressed as ng boron/mg protein.
# T98G = test: as above; format: cell-based, human; conditions: 2.5 mM in HBSS, 37° C., 2 hrs
# Protocol: as §1
# as §2, with “2 mL of water was added’ to each sample to bring the final volume up to 2.5 mL.” left out
# as §4
# A431 = test: as above; format: cell-based; conditions: 2.5 mM in HBSS, 37° C., 2 hrs
# Protocol: as §1
# as §2, with “2 mL of water was added’ to each sample to bring the final volume up to 2.5 mL.” left out
# as §4
# [7] = Pharmacokinetics (blood boron by ICP OES); format: in vivo, Balb/C non-tumor bearing male mice; conditions: tail vein injection
# Protocol: In this experiment, pharmacokinetics of BPA-BPA was evaluated using the following protocols. Briefly, […] of each compound was injected in the tail vein of Balb/C non-tumor bearing male mice (5 mice per group). Blood was drawn at the following time points: 2, 5, 16, 30, 60, 120 and 240 minutes into EDTA-coated tubes. Boron concentration was measured using ICP OES following the digestion in concentrated nitric acid for 1 hour. The boron concentration was normalized to 1 mL of blood and plotted using GraphPad Prizm. The PK parameters (see, FIG. 22, Table) were obtain using PK Solver ver. 2.0 using compartmental analysis BPA-fructose was used as a reference substance.
# [8] = test system: FaDu, Detroit-562, MeWo, HCC-1954, A549 and AsPC-1 human cancer xenograft models; test: Dose escalation of boron delivery, all tested xenograft models; format: in vivo, CB17 SCID mice; conditions: 1000 mg/kg, 120 minutes
# Protocol: Tumors were harvested 120 minutes following treatment and boron content determined by ICP-OES. Data are the means ± SD of 5 mice per treatment group.
# [9] = Pharmacokinetics of BPA-BPA
# From the text: Table printed on a drawing sheet, Figure 28, continued. Title: Pharmacokinetics of BPA-BPA The patent's description of the figure: FIG. 28. Pharmacokinetics of BPA-BPA. First reader's note: Continuation of Figure 28; BPA-BPA is a borylated dipeptide, BPA Fructose is the comparator formulation.
molecule,measurement,setting,value
"CC(NC(=O)[C@@H](N)Cc1ccc(B(O)O)cc1)C(=O)O (stereo partly drawn) [BPA-Ala, BPA-Alanine]",boron uptake (compared in words),FaDu cells [1],to a lower extent than BPA
same,relative conversion into BPA in the presence of cells,FaDu cells [2],Ala-BPA > BPA-BPA > BPA-Ala
"N[C@@H](Cc1ccc(B(O)O)cc1)C(=O)O [BPA, 4-Borono-L-phenylalanine, reference compound]",boron uptake (compared in words),FaDu cells [1],to a much greater extent than His-BPA
same,effect of Gly-SAR on boron uptake,AsPC-1 cells,no effect
same,effect of Gly-SAR on boron uptake,FaDu cells [3],no effect
same,tumor growth after BNCT,"CT26 xenografts [4]; 200 mg/kg, 6 minutes irradiation at 5 MW",only modest tumor inhibition
same,tumor growth after BNCT,"CT26 xenografts [4]; 200 mg/kg, 12 minutes irradiation at 5 MW","significant and similar growth inhibition, even regression"
same,tumor growth after BNCT,"CT26 xenografts [5]; 400 mg/kg, group sacrificed by day 18",continued tumor growth
same,solubility,[6]; L-BPA without fructose,1.7 mg/mL
same,concentration achieved with fructose formulation,"[6]; fructose formulation, quasi-stable solution",30 mg/mL
"CC(C)C[C@H](N)C(=O)N[C@@H](Cc1ccc(B(O)O)cc1)C(=O)O [Leu-BPA, Leucine-BPA]",boron uptake (compared in words),FaDu cells [1],to a lower extent than BPA
sodium borocaptate [BSH],5-year survival rate,intracranial tumor,58%
"C[C@H](N)C(=O)N[C@@H](Cc1ccc(B(O)O)cc1)C(=O)O [Ala-BPA, Alanine-BPA]",boron uptake (compared in words),FaDu cells [1],to a lower extent than BPA
same,relative conversion into BPA in the presence of cells,FaDu cells [2],Ala-BPA > BPA-BPA > BPA-Ala
N[C@@H](Cc1ccc(B(O)O)cc1)C(=O)N[C@@H](Cc1ccc(B(O)O)cc1)C(=O)O [BPA-BPA],"solubility (in words, compared to BPA)",Solubility,improved solubility
same,boron uptake compared to BPA,CT26,to a similar extent
same,boron uptake compared to BPA,T98G,to a similar extent
same,boron uptake (compared in words),FaDu cells [1],slightly lower than the LAT1 substrate BPA
same,boron uptake compared to BPA,A431,slightly lower than the LAT1 substrate BPA
same,relative conversion into BPA in the presence of cells,FaDu cells [2],Ala-BPA > BPA-BPA > BPA-Ala
same,formation of BPA in the absence of cells,"FaDu cells [2]; 2.5 mM, 4 hrs, media, no cells",Only trace amount of BPA
same,clearance (CL) compared to BPA,[7],remarkably similar
same,total drug exposure across time (AUC from zero to infinity) compared to BPA,[7],marginally lower
same,t½ beta (elimination phase) compared to BPA,[7],remarkably similar
same,pharmacokinetic profile,[7]; blood boron,bi-phasic pharmacokinetics
same,"tumor boron delivery, rank among treatments",[8],greatest boron to all tested xenografts
same,tumor growth after BNCT,"CT26 xenografts [4]; 800 mg/kg, 12 minutes irradiation at 5 MW","significant and similar growth inhibition, even regression"
same,tumor growth after BNCT,"CT26 xenografts [5]; 900 mg/kg, sustained out to 36 days",significant tumor regression
same,AUC (0 − t),[9],20463.9 µg·min/mL
same,AUC (0 − ∞),[9],29133.2 µg·min/mL
same,C0,[9],522.0 µg/mL
same,"CL, mg/(μg/mL)/min",[9],0.000113 mg/(μg/mL)/min
same,CMAX,[9],362.83 µg/mL
